Results on twelve compounds are retold here after ChEMBL document CHEMBL3045310, “Synthesis of new benzotriazepin-5(2H)-one derivatives of expected antipsychotic activity” (Med Chem Res, 2013).

Active and inactive are the calls of the source. The calls are words filed in the database; no cut-off is given here.

The subject of series [1] is Mus musculus. The series is described as follows: Anticonvulsant activity in Mus musculus albino (mouse) assessed as inhibition of PTZ-induced seizure at 3 mg/kg, ip administered 1 hr prior to PTZ-challenge measured after 2 to 4 min relative to control. It is filed as functional, organism-based. The arrangement: dose 3 mg/kg.
Series [2] relates to Mus musculus. The series is described as follows: Neurotoxicity against Mus musculus albino (mouse) assessed as inability to climb horizontal screen at 3 mg/kg, ip after 30 min by horizontal screen test relative to control. It is filed as toxicity, organism-based. Also noted: dose 3 mg/kg, route intraperitoneal. To be noted: in vivo, 0.5 h.
Series [3] has as its system Mus musculus. The series is described as follows: Neurotoxicity against Mus musculus albino (mouse) assessed as fall from horizontal screen at 3 mg/kg, ip after 30 min by horizontal screen test relative to control. It is filed as toxicity, organism-based. Also noted: dose 3 mg/kg, route intraperitoneal. To be noted: in vivo, 0.5 h.
Series [4] deals with Mus musculus. The series is described as follows: Neurotoxicity against Mus musculus albino (mouse) at 3 mg/kg, ip after 30 min by rotarod test. To be noted: in vivo, 0.5 h. It is filed as toxicity, organism-based. The arrangement: dose 3 mg/kg, route intraperitoneal.
The test system of series [5] is Mus musculus. The series is described as follows: CNS depressant activity in Mus musculus albino (mouse) assessed as immobility time at 3 mg/kg, ip measured after 24 hr by forced swim test (reference value: 120 +/- 5.1 secs). It is filed as functional. To be noted: route intraperitoneal.
In series [6] the test system is Mus musculus. The series is described as follows: Antipsychotic activity in Mus musculus albino (mouse) assessed as ptosis at 3 mg/kg, ip relative to control. It is filed as functional. Particulars: route intraperitoneal.

As to `CN1CN(C(=O)c2ccncc2)NC(=O)c2ccccc21`, the inhibition result in series [1] was “inactive”. For the same compound, the Activity in series [2] is 16.7%; in series [3] it was 33.3%; in series [4], “Toxic”; in series [6], 100%. Also, the Time in series [5] stood at 190 s.

With `COc1cc(C2N(C)c3ccccc3C(=O)NN2c2ccccc2)cc(OC)c1OC` (configuration not stated), the inhibition entry in series [1] was “inactive”. For the same compound, the Activity is 0% in series [2], 0% in series [3], “Non-toxic” in series [4] and 50% in series [6]. In addition, in series [5], the Time is recorded as 135 s.

As for `CN1c2ccccc2C(=O)NN(c2ccccc2)C1c1ccccc1[N+](=O)[O-]` (configuration not stated), the inhibition entry in series [1] is “inactive”. The Activity is 16.7% in series [2], 16.7% in series [3], “Toxic” in series [4] and 0% in series [6]. Also, the Time in series [5] is 141 s.

In the case of `CN1C(=S)N(c2ccccc2)NC(=O)c2ccccc21`, the inhibition entry in series [1] is “inactive”. In addition, the Activity in series [2] is 0%; in series [3], 0%; in series [4], “Non-toxic”; in series [6] it was 100%. Besides, the Time in series [5] was 129 s.

Turning to `CN1c2ccccc2C(=O)NN(c2ccccc2)C1c1ccc([N+](=O)[O-])cc1` (configuration not stated), the inhibition entry in series [1] was “inactive”. In addition, the Activity in series [2] is 0%; in series [3], 0%; in series [4], “Non-toxic”; in series [6] it was 50%. In series [5], the Time came out at 125 s.

For the compound `COc1ccc(C2N(C)c3ccccc3C(=O)NN2c2ccccc2)cc1` (configuration not stated), the inhibition result in series [1] is “inactive”. The Activity in series [2] is on record as 0%; in series [3], 16.7%; in series [4], “Toxic”; in series [6], 75%. In series [5], the Time was 141 s.

In the case of `CN1CCN(C2=Nc3cc(Cl)ccc3Nc3ccccc32)CC1` [CLOZAPINE], in series [1], the inhibition entry is “inactive”. Further, the Activity in series [2] is recorded as 16.7%; in series [3], 50%; in series [4], “Toxic”; in series [6], 100%. Moreover, the Time in series [5] is recorded as 194 s.

Turning to `CN1c2ccccc2C(=O)NN(c2ccccc2)C1c1ccccc1` (configuration not stated), the inhibition entry in series [1] is “inactive”. In addition, the Activity was 0% in series [2], 0% in series [3], “Non-toxic” in series [4] and 0% in series [6]. Moreover, in series [5], the Time is 118 s.

As for `CN1CN(c2ccccc2)NC(=O)c2ccccc21`, the inhibition result in series [1] is “inactive”. Further, the Activity in series [2] is on record as 0%; in series [3], 50%; in series [4] it was “Toxic”; in series [6], 100%. The Time in series [5] was determined as 178 s.

As to `CN1c2ccccc2C(=O)NN(c2ccccc2)C1c1ccc(Br)cc1` (configuration not stated), in series [1], the inhibition result was “inactive”. Also, the Activity in series [2] is on record as 16.7%; in series [3], 16.7%; in series [4], “Toxic”; in series [6], 0%. In addition, the Time in series [5] is on record as 140 s.

`CN1c2ccccc2C(=O)NN(c2ccccc2)C1c1ccc(Cl)cc1` (configuration not stated): the inhibition result in series [1] was “inactive”. For the same compound, the Activity in series [2] is on record as 33.3%; in series [3] it was 33.3%; in series [4] it was “Toxic”; in series [6] it was 50%. Besides, the Time in series [5] was 156 s.

Take `CN1c2ccccc2C(=O)NN(c2ccccc2)C1c1ccc(O)cc1` (configuration not stated): the inhibition entry in series [1] was “inactive”. Moreover, the Activity in series [2] is 0%; in series [3], 16.7%; in series [4], “Toxic”; in series [6], 75%. In series [5], the Time is listed as 151 s.
